pIC50: −log10 of the molar value. Where a SMILES comes first, the peptide text is derived from it. [ ]: non-standard residue; d: D form. Phe(4-F) = N[C@@H](Cc1ccc(F)cc1)C(=O)O; 1Nal = N[C@@H](Cc1cccc2ccccc12)C(=O)O; d(hPhe) = N[C@H](CCc1ccccc1)C(=O)O; Cha = N[C@@H](CC1CCCCC1)C(=O)O

Experimental findings from patent publication US5811512A, “Non-peptide peptidomimetics and related cyclic hexapeptides” (The Trustees of the University of Pennsylvania, priority 1996, dated 1998) are described below.

Experiment [1] deals with T1, human neurokinin-1 receptor (NK1R) (Homo sapiens, UniProt P25103).
T1 construct: the cDNA for the human NK1R was cloned into the expression vector pCDM9; expressed in transfected cells; host or cells: COS cells (transient, electroporation, vector pCDM9)
Kind of experiment: Substance P receptor binding: 125I-substance P displacement from human NK1R expressed in COS cells. Conditions: for pIC50: 125I-SP, COS cells expressing human NK1R, read-out: IC50 (concentration required to inhibit the binding of substance P to the human neurokinin-1 receptor by 50%). The procedure:
The affinity of a variety of compounds for the substance P receptor was determined employing the following procedure.
A. Receptor Expression in COS
To express the cloned human neurokinin-1 receptor (NK1R) transiently in COS, the cDNA for the human NK1R was cloned into the expression vector pCDM9 which was derived from pCDM8 (Invitrogen) by inserting the ampicillin resistance gene (nucleotide 1973 to 2964 from Bluescript SK+) into the Sac II site. Transfection of 20 μg of the plasmid DNA into 10 million COS cells was achieved by electroporation in 800 μl of the transfection buffer ([…], 1.2 mM MgCl2, 2.4 mM K2 HPO4, 0.6 mM KH2 PO4, 10 nM glucose, 10 mM HEPES pH 7.4) at 260V and 950 μF using the IBI Genezapper (IBI, New Haven, Conn.). The cells were incubated in 10% fetal calf serum, 2 mM glutamine, 100 U/ml penicillin-streptomycin, and 90% DMEM media (Gibco, Grand Island, N.Y.) in 5% CO2 at 37° C. for three days before the binding assay.
B. Assay Protocol using COS
The binding assay of human NK1R expressed in COS cells is based on the use of ^125 I-substance P (^125 I-SP, from DuPont, Boston, Mass.) as a radioactively labeled ligand which competes with unlabeled substance P or any other ligand for binding to the human NK1R. Monolayer cell cultures of COS were dissociated by the non-enzymatic solution (Specialty Media, Lavallette, N.J.) and resuspended in appropriate volume of the bind buffer (50 mM Tris pH 7.5, 5 mM MnCl2, 150 mM NaCl, 0.04 mg/ml bacitracin, 0.004 mg/ml leupeptin, 0.2 mg/ml BSA, 0.01 mM phosphoramidon) such that 200 μl of the cell suspension would give rise to about 10,000 cpm of specific ^125 I-SP binding (approximately 50,000 to 200,000 cells). In the binding assay, 200 μl of cells were added to a tube containing 20 μl of 1.5 to 2.5 nM of ^125 I-SP and 20 μl of unlabeled substance P or any other test compound. The tubes were incubated at 4° C. or at room temperature for 1 hour with gentle shaking. The bound radioactivity was separated from unbound radioactivity by GF/C filter (Brandel, Gaithersburg, Md.) which was pre-wetted with 0.1 polyethylenimine. The filter was washed with 3 ml of wash buffer (50 Tris pH 7.5, 5 mM MnCl21 150 mM NaCl) three times and its radioactivity was determined by gamma counter.
A variety of compounds were tested according to the COS cell procedure. The concentration of compound required to inhibit the binding of substance P to the human neurokinin-1 receptor by 50% was measured.

The test system of experiment [2] is HIV-1 protease.
The subject of experiment [3] is SRIF receptor. Kind of experiment: SRIF receptor affinity: displacement of 125I-CGP-23996 from AtT-20 cells. In kind it is binding. On the procedure: The affinity of a variety of compounds for the SRIF receptor was determined by studying the displacement of ^125 I-CGP-23996 from AtT-20 cells using the method generally in accordance with Raynor and Reisine, Journal of Pharmacology and Experimental Therapeutics, 1989, 251;2, 510.
On the technique in general: Loss of bound radioactivity is the signal in a displacement assay; it reports binding, not function.

Experiment [4] relates to β-adrenergic receptor. Kind of experiment: Radioligand displacement from AtT-20 and brain cells, β-adrenergic receptor. The format is binding.
Setting [5] is: displacement of 125I-CGP-23996, AtT-20 cells.

T1 sequence (P25103 whole entry): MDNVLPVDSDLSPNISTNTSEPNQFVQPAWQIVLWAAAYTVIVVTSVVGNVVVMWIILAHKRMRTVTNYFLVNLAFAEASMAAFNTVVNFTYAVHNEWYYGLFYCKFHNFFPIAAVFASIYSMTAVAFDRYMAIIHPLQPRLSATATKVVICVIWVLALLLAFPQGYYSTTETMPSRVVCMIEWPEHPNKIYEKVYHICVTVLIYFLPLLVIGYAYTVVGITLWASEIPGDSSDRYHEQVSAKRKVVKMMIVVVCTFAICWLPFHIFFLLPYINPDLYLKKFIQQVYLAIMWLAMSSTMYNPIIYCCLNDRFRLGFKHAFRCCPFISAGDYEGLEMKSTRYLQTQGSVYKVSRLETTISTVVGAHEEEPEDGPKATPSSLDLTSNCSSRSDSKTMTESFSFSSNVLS

For the molecule `CC(=O)NCCCCCOC[C@H]1O[C@@H](OCCc2cn(S(=O)(=O)c3ccccc3)c3ccccc23)[C@H](OCc2ccccc2)[C@@H](OCc2ccccc2)[C@@H]1OCc1ccccc1` [Compound 7, 2-(1-Phenylsulfonyl-indol-3yl)ethyl-6-O-(5-acetamidopentyl)-2,3,4-tri-O-benzyl-β-D-glucopyranoside], the pIC50 in experiment [1] was 7.25.

For `OC[C@@H]1C[C@H](OCc2ccccc2)[C@@H](OCc2ccccc2)[C@H](OCCc2c[nH]c3ccccc23)O1` [Compound 11, 2-Indol-3-yl-ethyl-2,3,-di-O-benzyl-4-deoxy-β-D-glucopyranoside], the pIC50 in experiment [1] is 6.40. Take `C[C@@H]1NC(=O)[C@@H](Cc2c[nH]c3ccccc23)NC(=O)[C@H](Cc2ccccc2)NC(=O)[C@@H]2CCCN2C(=O)[C@H](Cc2ccccc2)NC(=O)[C@H]([C@@H](C)O)NC1=O` [(17d), Cyclo (Phe-D-Trp-Ala-Thr-Phe-Pro)] (cyclo(ATFPF[dW])): the pIC50 in experiment [2] is 5.05. In turn, `C[C@@H](O)[C@@H]1NC(=O)[C@H](Cc2ccccc2)NC(=O)[C@@H](Cc2c[nH]c3ccccc23)NC(=O)[C@H]2CCCN2C(=O)[C@@H]2CCCN2C(=O)[C@H](Cc2ccccc2)NC1=O` [(18c), Cyclo (D-Pro-D-Trp-Phe-Thr-Phe-Pro)] (cyclo(FP[dP][dW]FT)) gave a pIC50 in experiment [2] of 7.29. Same read-out and setting: the value for `CC(C)C[C@@H]1NC(=O)[C@@H](Cc2c[nH]c3ccccc23)NC(=O)[C@H](Cc2ccccc2)NC(=O)[C@@H]2CCCN2C(=O)[C@H](Cc2ccccc2)NC(=O)[C@H]([C@@H](C)O)NC1=O` [(17a), Cyclo (Phe-D-Trp-Leu-Thr-Phe-Pro)] (cyclo(FPF[dW]LT)) was 5.47; that for `C[C@@H](O)[C@@H]1NC(=O)[C@H](Cc2ccc(O)cc2)NC(=O)[C@@H](Cc2c[nH]c3ccccc23)NC(=O)[C@H](Cc2ccccc2)NC(=O)[C@@H]2CCCN2C(=O)[C@H](Cc2ccccc2)NC1=O` [(17c), Cyclo (Phe-D-Trp-Tyr-Thr-Phe-Pro)] (cyclo(FPF[dW]YT)) was 5.67. The same measure, in the same setting: the value for `C[C@@H](O)[C@@H]1NC(=O)[C@H](Cc2ccccc2)NC(=O)[C@@H](Cc2c[nH]c3ccccc23)NC(=O)[C@H](Cc2c[nH]c3ccccc23)NC(=O)[C@@H]2CCCN2C(=O)[C@H](Cc2ccccc2)NC1=O` [(18e), Cyclo (Trp-D-Trp-Phe-Thr-Phe-Pro)] (cyclo(FPW[dW]FT)) was 7.14. On to `C[C@@H](O)[C@@H]1NC(=O)[C@H](Cc2ccccc2)NC(=O)[C@@H](Cc2c[nH]c3ccccc23)NC(=O)[C@@H](CCc2ccccc2)NC(=O)[C@@H]2CCCN2C(=O)[C@H](Cc2ccccc2)NC1=O` [(18g), Cyclo (D-Homo-Phe-D-Trp-Phe-Thr-Phe-Pro)] (cyclo(FP[d(hPhe)][dW]FT)), for which the pIC50 in experiment [2] was 6.79. On to `CO[C@@H]1O[C@H](COCCCCCNC(=O)C(F)(F)F)[C@@H](OCc2ccccc2)[C@H](OCc2ccccc2)[C@H]1OCc1ccccc1` [Compound 13, Methyl 2,3,4-tri-O-benzyl-6-O-(N-trifluoroacetyl-5-aminopentyl)-β-D-glucopyranoside], for which the pIC50 in experiment [1] was 6.00. For the same molecule, the “IC50 (affinity for the SRIF receptor)” value in experiment [3] (setting [5]) is recorded as “does not bind”. `C[C@@H](O)[C@@H]1NC(=O)[C@H](Cc2ccccc2)NC(=O)[C@@H](Cc2c[nH]c3ccccc23)NC(=O)[C@H](CC(=O)O)NC(=O)[C@@H]2CCCN2C(=O)[C@H](Cc2ccccc2)NC1=O` [(18b), Cyclo (Asp-D-Trp-Phe-Thr-Phe-Pro)] (cyclo(D[dW]FTFP)): in experiment [2], the pIC50 is 5.40. Still for that read-out and setting: the value for `C[C@@H](O)[C@@H]1NC(=O)[C@H](Cc2ccc(F)cc2)NC(=O)[C@@H](Cc2c[nH]c3ccccc23)NC(=O)[C@H](Cc2ccccc2)NC(=O)[C@@H]2CCCN2C(=O)[C@H](Cc2ccccc2)NC1=O` [(17f), Cyclo (Phe-D-Trp-p-F-Phe-Thr-Phe-Pro)] (cyclo(FPF[dW][Phe(4-F)]T)) was 7.43; that for `C[C@@H](O)[C@@H]1NC(=O)[C@H](Cc2ccccc2)NC(=O)[C@@H](Cc2c[nH]c3ccccc23)NC(=O)[C@@H](Cc2ccccc2)NC(=O)[C@@H]2CCCN2C(=O)[C@H](Cc2ccccc2)NC1=O` [(18f), Cyclo (D-Phe-D-Trp-Phe-Thr-Phe-Pro)] (cyclo(FP[dF][dW]FT)) was 5.95; that for `C[C@@H]1NC(=O)[C@@H]2CCCN2C(=O)[C@H](Cc2ccccc2)NC(=O)[C@H]([C@@H](C)O)NC(=O)[C@H](Cc2ccccc2)NC(=O)[C@@H](Cc2c[nH]c3ccccc23)NC1=O` [(18d), Cyclo (Ala-D-Trp-Phe-Thr-Phe-Pro)] (cyclo(A[dW]FTFP)) was 5.66. On the same count and under the same terms, the value for `C[C@@H](O)[C@@H]1NC(=O)[C@H](Cc2ccccc2)NC(=O)[C@@H](Cc2c[nH]c3ccccc23)NC(=O)[C@H](Cc2ccccc2)NC(=O)[C@@H]2CCCN2C(=O)[C@H](Cc2ccccc2)NC1=O` [(17b), Cyclo (Phe-D-Trp-Phe-Thr-Phe-Pro)] (cyclo(FPF[dW]FT)) was 6.48; that for `C[C@@H](O)[C@@H]1NC(=O)[C@H](Cc2ccccc2)NC(=O)[C@@H](Cc2c[nH]c3ccccc23)NC(=O)[C@H](CO)NC(=O)[C@@H]2CCCN2C(=O)[C@H](Cc2ccccc2)NC1=O` [(18a), Cyclo (Ser-D-Trp-Phe-Thr-Phe-Pro)] (cyclo(FPS[dW]FT)) was 5.66.

Turning to `C[C@@H](O)[C@@H]1NC(=O)[C@H](Cc2ccccc2)NC(=O)[C@@H](Cc2c[nH]c3ccccc23)NC(=O)[C@H](Cc2cccc3ccccc23)NC(=O)[C@@H]2CCCN2C(=O)[C@H](Cc2ccccc2)NC1=O` [(18i), Cyclo (Nal-D-Trp-Phe-Thr-Phe-Pro)] (cyclo([1Nal][dW]FTFP)), in experiment [2], the pIC50 was 7.66. Still for that read-out and setting: then `C[C@@H](O)[C@@H]1NC(=O)[C@H](Cc2ccc(F)cc2)NC(=O)[C@@H](Cc2c[nH]c3ccccc23)NC(=O)[C@H](Cc2cccc3ccccc23)NC(=O)[C@@H]2CCCN2C(=O)[C@H](Cc2ccccc2)NC1=O` [Compound (19), Cyclo (Nal-D-Trp-p-F-Phe-Thr-Phe-Pro)] (cyclo([1Nal][dW][Phe(4-F)]TFP)), with 8.55. Same read-out and setting: the value for `C[C@@H](O)[C@@H]1NC(=O)[C@H](Cc2ccccc2)NC(=O)[C@@H](Cc2c[nH]c3ccccc23)NC(=O)[C@H](CC2CCCCC2)NC(=O)[C@@H]2CCCN2C(=O)[C@H](Cc2ccccc2)NC1=O` [(18h), Cyclo (Cha-D-Trp-Phe-Thr-Phe-Pro)] (cyclo([Cha][dW]FTFP)) was 6.15.

Regarding `C[C@@H](O)[C@@H]1NC(=O)[C@H](CCCCN)NC(=O)[C@@H](Cc2c[nH]c3ccccc23)NC(=O)[C@H](Cc2ccccc2)NC(=O)[C@@H]2CCCN2C(=O)[C@H](Cc2ccccc2)NC1=O` [L-363,301, reference compound] (cyclo(PF[dW]KTF)), in experiment [3] (setting [5]), the pIC50 was 7.73. In experiment [2], `COc1ccc(C[C@@H]2NC(=O)[C@@H](Cc3c[nH]c4ccccc34)NC(=O)[C@H](Cc3ccccc3)NC(=O)[C@@H]3CCCN3C(=O)[C@H](Cc3ccccc3)NC(=O)[C@H]([C@@H](C)O)NC2=O)cc1` [(17e), Cyclo (Phe-D-Trp-p-MeO-Phe-Thr-Phe-Pro)] (cyclo(FPF[dW]Y(Me)T)) gave a pIC50 of 6.89. Turning to `CO[C@@H]1O[C@H](COCCCCCN)[C@@H](OCc2ccccc2)[C@H](OCc2ccccc2)[C@H]1OCc1ccccc1` [Compound 8, Methyl 6-O-(5-aminopentyl)-2,3,4-tri-O-benzyl-β-D-glucopyranoside], the “binding to β-adrenergic receptor” value in experiment [4] was “does not bind”. Further, the “Binding Inhibition” value in experiment [4] (125I-CYP (0.1 nM), AtT-20) is listed as 0%. Also, in experiment [1], the “binding to substance P receptor” value was “is bound by” and the pIC50 was 6.08. Also, the “binding to SRIF receptor” value in experiment [3] was “is bound by”. Moreover, the pIC50 in experiment [3] (setting [5]) was 4.40. In experiment [3] (setting [5]), `CC(C)[C@@H]1NC(=O)[C@H](CCCCN)NC(=O)[C@@H](Cc2c[nH]c3ccccc23)NC(=O)[C@H](Cc2ccc(O)cc2)NC(=O)[C@H](C)N(C)C(=O)[C@H](Cc2ccccc2)NC1=O` [MK 678, reference compound] had a pIC50 of 7.22.
